Active and inactive are the calls of the source. The rule behind the calls is not given here.
Columns and labels:
[1] = test system: P388; assay: Cytotoxicity against mouse P388 cells by MTT assay; format: functional, cell-based
[2] = test system: HEL; assay: Cytotoxicity against HEL cells by MTT assay; format: cell-based; conditions: Homo sapiens
[3] = test system: HT-29; assay: Cytotoxicity against human HT-29 cells by MTT assay; format: functional, cell-based
[4] = test system: Salmonella enterica; assay: Antibacterial activity against Salmonella enteritidis ATCC 13076 at 250 ug/ml by disk diffusion method; format: functional, organism-based; conditions: Salmonella enterica subsp. enterica serovar Enteritidis
[5] = test system: Human betaherpesvirus 5; assay: Antiviral activity against human cytomegalovirus infected HEL cells after 7 days by; format: functional, organism-based; conditions: Human betaherpesvirus 5, HEL, 168 h

Row | Structure (SMILES) | IC50 [1] | IC50 [2] | IC50 [3] | Activity [4] | IC50 [5]
1 | COC(=O)/C1=C/CC/C(C)=C/[C@@H]2OCC(C)=C2CC[C@@]2(C)O[C@@H]2CC1 [LOBOPHYNIN C] | > 50 µg/mL | > 50 µg/mL | > 50 µg/mL | inactive | 5.8 µM
2 | COC(C)(C)/C1=C/C=C(\C)CC[C@@H]2O[C@@]2(C)CC/C=C(/C(=O)O)CC1 [EHRENBEROXIDE A] | > 50 µg/mL | > 50 µg/mL | > 50 µg/mL | inactive | 24.8 µM
3 | C/C1=C\C=C(\C(C)C)CC[C@@]2(C)O[C@H](C1)C[C@@](C)(O)CC[C@@H]2O [EHRENBEROXIDE B] | > 50 µg/mL | > 50 µg/mL | > 50 µg/mL | inactive | 4.7 µM

— ChEMBL document CHEMBL1154903, “Cembranoids from the octocoral Sarcophyton ehrenbergi” (J Nat Prod, 2010)
